Legend:
human PI3Kα = human PI3Kα (Homo sapiens (Human), UniProt P42336); test: Biochemical assay PI3Kalpha (KinaseGlo luminescence); conditions: 1 μM ATP
From the text: Cancer Ther. accepted). […] (L-alpha-phosphatidylinositol (PI), Liver, Bovine) were obtained from Avanti Polar Lipid (Cat. […] (Avanti, Cat. No. 840046X) or L-α-phosphatidylinositol (PI) was obtained from Avanti Polar Lipid (Cat. […] Luminescence is a well established readout to determine ATP concentrations and can thus be used to follow the activity of many kinases regardless of their substrate. The Kinase Glo Luminescent Kinase Assay (Promega, Madison/WI, USA) is a homogeneous HTS method of measuring kinase activity by quantifying the amount of ATP remaining in solution following a kinase reaction. 50 nL of compound dilutions were dispensed onto black 384-well low volume Non Binding Styrene (NBS) plates (Costar Cat. No. […] L-α-phosphatidylinositol (PI), provided as 10 mg/ml solution in methanol, was transferred into a glass tube and dried under nitrogen beam. […] NVP-BGT226 was used as a reference compound and included in all assay plates in the form of 16 dilution points in duplicate. […] All fits were performed with the program XLfit4 (ID Business Solutions, Guildford, UK).

[1] = target: human PI3Kdelta p110 catalytic subunit (Rat-1 cells) (Homo sapiens (Human), UniProt O00329); test: Cellular assay PI3Kdelta, p-Akt(S473) SureFire in Rat-1_PI3Kdelta cells; type: cell-based; conditions: p-AKT(Ser473), 1 h treatment; read-out: Rat1-PI3Kd/IC50
From the text: (§1) AlphaScreen (Amplified Luminescent Proximity Homogeneous Assay, ALPHA, Perkin Elmer) is a non-radioactive bead-based proximity assay technology to study biomolecular interactions in a homogenous microtiter plate format. The brand name SureFire denotes AlphaScreen assays that are adapted to quantify the phosphorylation of endogenous cellular proteins in cell lysates, by using matched antibody pairs, which consist of an anti-phospho-kinase and an anti-kinase antibody. The assay allows characterization of kinase signaling in cells as well as measurement of kinase inhibitor effects. The AlphaScreen technology provides several advantages over standard assay techniques such as ELISA, as it avoids time-consuming washing procedures and reduces plate handling. Furthermore, it is miniaturizable at least to a 384-well format and provides sensitivity down to the femtomolar range, dependent on the affinity of the antibodies included in the individual AlphaScreen SureFire assay kit. High sensitivity is reached by an intrinsic amplification mechanism, which involves production of singlet oxygen molecules. SureFire assay kits are commercially available for specific targets and include pairs of validated antibodies (PerkinElmer). This report describes common procedures applied for AlphaScreen SureFire assays and respective semi-automated steps for routine kinase inhibitor profiling in cell-based assays.
(§2) The Rat-1 cell lines stably overexpressing activated PI3K class I isoforms Rat-1 pBABEpuro Myr-HA-hp110 delta (Rat-1_PI3Kdelta) and Rat-1 pBABEpuro Myr-HA-hp110alpha (Rat-1_PI3Kalpha) and Rat-1 pBABEpuro Myr-HA-hp110 beta (Rat-1_PI3beta) were prepared as described (Maira S M, Stauffer F, Brueggen J, Furet P, Schnell C, Fritsch C, Brachmann S, Chène P, de Pover A, Schoemaker K, Fabbro D, Gabriel D, Simonen M, Murphy L, Finan P, Sellers W, Garcia-Echeverria C (2008), Mol Cancer Ther. 7:1851-63 and Maira S M, Pecchi S, Brueggen J, Huh K, Schnell C, Fritsch C, Nagel T, Wiesmann M, Brachmann S, Dorsch M, Chène P, Schoemaker K, De Pover A, Menezes D, Fabbro D, Sellers W, Garcia-Echeverria C, Voliva CF (2011), Mol. Cancer Ther., accepted). All cell lines were cultivated in complete growth medium (DMEM high glucose, 10% (v/v) fetal bovine serum, 1% (v/v) MEM NEAA, 10 mM HEPES, 2 mM L-glutamine, puromycin (10 μg/mL for Rat-1_PI3Kdelta and Rat-1_PI3Kalpha, 4 ug/mL for Rat-1_PI3beta), 1% (v/v) Pen/Strep) to 90% confluency at 37° C./5% CO2/90% humidity in a humidified CO2 incubator and were split twice a week.
The following materials were used for p-AKT(5473) detection in Rat-1 cell lysates: Dulbecco's modified Eagle's medium (DMEM) high glucose (Gibco Invitrogen, Basel, Switzerland, Cat. No. 41965), Heat Inactivated Fetal Bovine Serum, Qualified (HI FBS; Gibco Invitrogen, Basel, Switzerland, Lot. No. 16140), MEM non essential amino acids (NEAA; Gibco Invitrogen, Basel, Switzerland, Cat. No. 11140), HEPES (Gibco Invitrogen, Basel, Switzerland, Cat. No. 15630), Penicillin/Streptomycin (Pen/Strep, 100x; Gibco Invitrogen, Basel, Switzerland, Cat. No. 15140-122), L-Glutamine (Gibco Invitrogen, Basel, Switzerland, Cat. No. 25030), Puromycin (Sigma Aldrich, Buchs, Switzerland, Cat. No. P9620), DMSO (MERCK, Dietikon, Switzerland, Cat. No. 8.02912.2500), H2O, MilliQ-H2O unless otherwise stated (MILLIPORE QGARDOOR1, Millipore, Zug, Switzerland), Bovine serum albumine (BSA; Sigma Aldrich, Buchs, Switzerland Cat. No. A8412), SureFire p-Akt ½ (Ser473) Assay Kit (PerkinElmer, Schwerzenbach, Switzerland, Cat. No. TGRAS50K).
The p-Akt(5473) SureFire assay measures the phosphorylation of endogenous cellular Akt ½ at Ser473 in cell lysates. Using Rat-1 cells stably expressing myr-HA-tagged versions of the human PI3Kdelta, PI3Kalpha, or PI3Kbeta p110 catalytic subunit isoforms, the assay was developed as a two-plate protocol in a 384-well format.

[2] = target: human PI3Kbeta p110 catalytic subunit (Rat-1 cells) (Homo sapiens (Human), UniProt P42338); test: Cellular assay PI3Kbeta, p-Akt(S473) SureFire in Rat-1_PI3Kbeta cells; type: cell-based; conditions: p-AKT(Ser473), 1 h treatment; read-out: Rat1-PI3Kb/IC50
From the text: as §1
as §2, with “week. […]” for “week.”

[3] = target: human PI3Kalpha p110 catalytic subunit (Rat-1 cells) (Homo sapiens (Human), UniProt P42336); test: Cellular assay PI3Kalpha, p-Akt(S473) SureFire in Rat-1_PI3Kalpha cells; type: cell-based; conditions: p-AKT(Ser473), 1 h treatment
From the text: as §1, with “This report describes common procedures applied for AlphaScreen SureFire assays and respective semi-automated steps for routine kinase inhibitor profiling in cell-based assays.” left out

human PI3Kbeta p110 catalytic subunit (Rat-1 cells), sequence (P42338 whole entry): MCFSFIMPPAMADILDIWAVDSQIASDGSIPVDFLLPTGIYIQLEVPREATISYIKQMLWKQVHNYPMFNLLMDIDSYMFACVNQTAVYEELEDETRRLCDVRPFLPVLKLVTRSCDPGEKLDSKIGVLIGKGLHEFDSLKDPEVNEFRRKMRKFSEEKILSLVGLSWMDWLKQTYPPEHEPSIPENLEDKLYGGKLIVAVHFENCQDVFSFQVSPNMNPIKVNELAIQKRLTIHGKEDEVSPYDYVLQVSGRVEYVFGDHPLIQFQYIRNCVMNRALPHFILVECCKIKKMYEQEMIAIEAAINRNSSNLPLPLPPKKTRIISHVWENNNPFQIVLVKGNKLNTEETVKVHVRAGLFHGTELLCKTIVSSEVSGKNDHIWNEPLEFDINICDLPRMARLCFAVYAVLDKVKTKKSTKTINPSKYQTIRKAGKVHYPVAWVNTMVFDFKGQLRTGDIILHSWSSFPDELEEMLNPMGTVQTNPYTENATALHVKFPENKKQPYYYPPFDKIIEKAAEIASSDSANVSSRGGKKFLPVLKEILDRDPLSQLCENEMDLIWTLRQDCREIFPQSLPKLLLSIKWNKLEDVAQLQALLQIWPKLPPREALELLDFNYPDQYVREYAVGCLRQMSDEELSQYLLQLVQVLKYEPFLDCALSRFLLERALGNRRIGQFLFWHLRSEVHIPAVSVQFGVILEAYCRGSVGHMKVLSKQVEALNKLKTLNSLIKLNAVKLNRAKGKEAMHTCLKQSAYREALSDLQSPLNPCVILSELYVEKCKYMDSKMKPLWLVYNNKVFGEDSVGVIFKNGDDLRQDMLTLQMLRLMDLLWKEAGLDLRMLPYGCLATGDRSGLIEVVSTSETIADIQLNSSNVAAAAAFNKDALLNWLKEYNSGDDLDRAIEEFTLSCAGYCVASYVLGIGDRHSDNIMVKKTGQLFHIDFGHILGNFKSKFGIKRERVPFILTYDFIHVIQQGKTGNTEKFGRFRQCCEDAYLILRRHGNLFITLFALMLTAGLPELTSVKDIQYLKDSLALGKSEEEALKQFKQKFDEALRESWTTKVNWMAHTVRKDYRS
human PI3Kbeta p110 catalytic subunit (Rat-1 cells), sequence (Q63787 whole entry partner): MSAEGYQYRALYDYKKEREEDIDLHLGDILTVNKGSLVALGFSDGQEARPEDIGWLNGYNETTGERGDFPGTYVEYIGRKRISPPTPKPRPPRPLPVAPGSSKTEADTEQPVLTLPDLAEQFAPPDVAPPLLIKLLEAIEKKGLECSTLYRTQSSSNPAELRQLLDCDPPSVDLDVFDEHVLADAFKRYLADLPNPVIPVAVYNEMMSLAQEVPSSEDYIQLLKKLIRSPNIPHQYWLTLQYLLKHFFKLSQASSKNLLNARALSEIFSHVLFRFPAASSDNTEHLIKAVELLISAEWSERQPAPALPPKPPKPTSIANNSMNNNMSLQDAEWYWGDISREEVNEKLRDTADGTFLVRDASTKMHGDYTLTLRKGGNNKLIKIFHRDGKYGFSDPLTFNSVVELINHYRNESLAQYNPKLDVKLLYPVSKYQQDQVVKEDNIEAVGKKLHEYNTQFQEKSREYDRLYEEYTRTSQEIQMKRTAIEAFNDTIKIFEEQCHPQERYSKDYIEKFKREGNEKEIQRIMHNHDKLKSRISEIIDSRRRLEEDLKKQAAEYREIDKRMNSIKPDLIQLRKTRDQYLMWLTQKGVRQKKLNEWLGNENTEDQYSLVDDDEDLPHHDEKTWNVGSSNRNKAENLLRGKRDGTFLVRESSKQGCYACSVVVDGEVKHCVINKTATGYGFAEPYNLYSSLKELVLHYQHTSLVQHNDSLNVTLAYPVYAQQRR
human PI3Kdelta p110 catalytic subunit (Rat-1 cells), sequence (O00329 whole entry): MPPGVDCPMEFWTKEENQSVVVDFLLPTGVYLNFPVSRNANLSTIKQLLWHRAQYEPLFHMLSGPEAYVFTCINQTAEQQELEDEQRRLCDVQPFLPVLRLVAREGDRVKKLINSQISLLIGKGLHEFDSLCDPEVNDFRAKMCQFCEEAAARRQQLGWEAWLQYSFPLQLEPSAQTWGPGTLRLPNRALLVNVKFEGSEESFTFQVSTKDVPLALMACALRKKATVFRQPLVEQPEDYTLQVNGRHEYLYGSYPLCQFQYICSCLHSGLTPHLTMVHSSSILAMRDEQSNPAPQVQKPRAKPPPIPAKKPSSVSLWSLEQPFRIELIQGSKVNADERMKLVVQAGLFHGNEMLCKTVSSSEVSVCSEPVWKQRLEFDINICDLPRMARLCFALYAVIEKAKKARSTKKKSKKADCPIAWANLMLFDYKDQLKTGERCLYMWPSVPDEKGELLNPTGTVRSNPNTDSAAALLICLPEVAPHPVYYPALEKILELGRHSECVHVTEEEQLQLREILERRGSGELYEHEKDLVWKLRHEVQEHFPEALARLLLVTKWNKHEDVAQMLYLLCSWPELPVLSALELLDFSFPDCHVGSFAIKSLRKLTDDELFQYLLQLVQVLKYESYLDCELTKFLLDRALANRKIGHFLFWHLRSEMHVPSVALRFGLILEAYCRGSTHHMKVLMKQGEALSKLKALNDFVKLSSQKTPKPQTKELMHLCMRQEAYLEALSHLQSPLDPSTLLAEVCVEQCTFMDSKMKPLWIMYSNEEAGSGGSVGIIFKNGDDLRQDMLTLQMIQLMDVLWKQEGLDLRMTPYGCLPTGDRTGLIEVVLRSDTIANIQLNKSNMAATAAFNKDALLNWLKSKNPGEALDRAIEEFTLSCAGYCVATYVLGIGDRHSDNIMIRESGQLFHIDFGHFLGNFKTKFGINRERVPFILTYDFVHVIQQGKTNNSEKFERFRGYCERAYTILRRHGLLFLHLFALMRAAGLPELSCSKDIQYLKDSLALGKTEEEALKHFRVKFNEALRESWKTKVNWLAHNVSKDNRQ
human PI3Kdelta p110 catalytic subunit (Rat-1 cells), sequence (Q63787 whole entry partner): as the sequence (Q63787 whole entry partner) above
human PI3Kalpha p110 catalytic subunit (Rat-1 cells), sequence (P42336 whole entry): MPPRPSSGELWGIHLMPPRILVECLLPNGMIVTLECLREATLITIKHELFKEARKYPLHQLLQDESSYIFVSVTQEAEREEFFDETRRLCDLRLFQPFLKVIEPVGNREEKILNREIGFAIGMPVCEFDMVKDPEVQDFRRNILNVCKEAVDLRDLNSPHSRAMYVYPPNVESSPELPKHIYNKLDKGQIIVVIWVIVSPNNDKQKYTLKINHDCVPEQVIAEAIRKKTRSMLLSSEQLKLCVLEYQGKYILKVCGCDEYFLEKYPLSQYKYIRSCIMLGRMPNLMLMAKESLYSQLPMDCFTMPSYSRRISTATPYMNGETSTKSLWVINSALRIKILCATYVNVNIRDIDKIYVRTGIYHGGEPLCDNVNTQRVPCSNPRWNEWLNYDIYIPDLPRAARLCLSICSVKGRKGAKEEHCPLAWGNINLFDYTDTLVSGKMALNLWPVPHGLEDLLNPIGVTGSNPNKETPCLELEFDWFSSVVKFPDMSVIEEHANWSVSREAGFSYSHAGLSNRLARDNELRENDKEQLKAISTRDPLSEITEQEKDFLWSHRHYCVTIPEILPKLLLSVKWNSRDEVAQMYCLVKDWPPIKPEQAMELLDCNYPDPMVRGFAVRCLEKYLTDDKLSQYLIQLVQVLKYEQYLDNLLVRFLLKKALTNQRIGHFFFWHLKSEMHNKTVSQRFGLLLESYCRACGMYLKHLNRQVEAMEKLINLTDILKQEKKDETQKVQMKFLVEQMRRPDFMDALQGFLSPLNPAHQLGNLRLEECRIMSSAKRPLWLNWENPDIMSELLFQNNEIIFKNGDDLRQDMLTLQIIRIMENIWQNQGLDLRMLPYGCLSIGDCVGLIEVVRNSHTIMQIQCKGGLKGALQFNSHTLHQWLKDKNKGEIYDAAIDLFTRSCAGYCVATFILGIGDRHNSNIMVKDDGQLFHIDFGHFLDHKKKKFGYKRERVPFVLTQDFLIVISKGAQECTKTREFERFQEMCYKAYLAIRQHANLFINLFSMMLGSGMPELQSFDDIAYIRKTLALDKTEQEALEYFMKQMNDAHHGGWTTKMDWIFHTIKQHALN
human PI3Kalpha p110 catalytic subunit (Rat-1 cells), sequence (Q63787 whole entry partner): as the sequence (Q63787 whole entry partner) above
human PI3Kα, sequence (P42336 21-1068): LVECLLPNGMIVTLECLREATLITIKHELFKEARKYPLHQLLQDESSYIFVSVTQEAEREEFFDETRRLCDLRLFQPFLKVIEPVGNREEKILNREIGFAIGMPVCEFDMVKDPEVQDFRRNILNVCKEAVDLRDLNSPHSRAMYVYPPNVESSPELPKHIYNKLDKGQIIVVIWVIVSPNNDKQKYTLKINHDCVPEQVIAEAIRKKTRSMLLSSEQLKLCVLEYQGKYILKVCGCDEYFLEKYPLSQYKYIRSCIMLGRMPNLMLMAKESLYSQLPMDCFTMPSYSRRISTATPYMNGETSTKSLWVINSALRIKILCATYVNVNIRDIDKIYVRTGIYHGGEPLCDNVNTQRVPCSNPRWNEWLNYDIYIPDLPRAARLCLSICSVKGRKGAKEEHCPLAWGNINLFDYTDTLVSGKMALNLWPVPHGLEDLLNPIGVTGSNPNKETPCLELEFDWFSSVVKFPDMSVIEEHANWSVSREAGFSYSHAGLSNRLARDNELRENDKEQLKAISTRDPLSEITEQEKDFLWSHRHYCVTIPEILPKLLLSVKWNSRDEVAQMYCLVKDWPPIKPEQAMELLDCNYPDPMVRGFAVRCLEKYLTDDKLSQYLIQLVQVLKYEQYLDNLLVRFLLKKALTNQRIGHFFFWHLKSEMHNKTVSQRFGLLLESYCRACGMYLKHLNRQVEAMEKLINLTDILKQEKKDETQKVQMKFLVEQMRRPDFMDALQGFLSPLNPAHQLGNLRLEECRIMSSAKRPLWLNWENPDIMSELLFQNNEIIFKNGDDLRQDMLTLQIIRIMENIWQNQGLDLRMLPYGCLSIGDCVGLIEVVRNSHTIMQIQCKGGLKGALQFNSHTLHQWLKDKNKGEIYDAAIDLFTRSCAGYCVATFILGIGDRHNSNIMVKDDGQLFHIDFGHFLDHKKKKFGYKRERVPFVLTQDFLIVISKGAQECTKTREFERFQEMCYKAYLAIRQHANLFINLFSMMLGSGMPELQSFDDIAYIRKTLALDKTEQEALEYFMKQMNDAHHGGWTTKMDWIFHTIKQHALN

| SMILES | PI3Ka/IC50 (human PI3Kα) | IC50 [1] | IC50 [2] | Rat1-PI3Ka/IC50 [3] |
| --- | --- | --- | --- | --- |
| Nc1ncc(-c2cc(N3C(=O)O[C@@H](c4ccccc4)[C@@H]3CO)nc(N3CCOCC3)n2)c(C(F)(F)F)n1 [Example 10] | 0.009 umol I-1 | 22 nM | 23 nM | 0.085 umol I-1 |
| COCCOc1ccc([C@@H]2OC(=O)N(c3cc(-c4cnc(N)nc4C(F)(F)F)nc(N4CCOCC4)n3)[C@H]2CO)cc1 [Example 12] | – | 4 nM | – | – |
| C[C@H]1[C@@H](c2nccs2)OC(=O)N1c1cc(-c2cnc(N)nc2C(F)(F)F)nc(N2CCOCC2)n1 [Example 11] | – | – | 26 nM | – |
| CC1C(c2cccnc2)OC(=O)N1c1cc(-c2cnc(N)nc2C(F)(F)F)nc(N2CCOCC2)n1 (stereo not shown) [Example 9] | – | 11 nM | – | – |
| CCC1C(c2cccnc2)OC(=O)N1c1cc(-c2cnc(N)nc2C(F)(F)F)nc(N2CCOCC2)n1 (stereo not shown) [Example 8] | – | – | 26 nM | – |
| CC[C@H]1[C@H](c2nccs2)OC(=O)N1c1cc(-c2cnc(N)nc2C(F)(F)F)nc(N2CCOCC2)n1 [Example 7] | – | 123 nM | – | – |
| COc1ccc([C@@H]2OC(=O)N(c3cc(-c4cnc(N)nc4C(F)(F)F)nc(N4CCOCC4)n3)[C@H]2CO)cc1 [Example 3, (4S,5S)-3-(2′-Amino-2-morpholino-4′-(trifluoromethyl)-[4,5′-bipyrimidin]-6-yl)-4-(hydroxymethyl)-5-(4-methoxyphenyl)oxazolidin-2-one] | – | 6 nM | 33 nM | – |
| CC[C@H]1[C@H](c2ccc(OC)cc2)OC(=O)N1c1cc(-c2cnc(N)nc2C(F)(F)F)nc(N2CCOCC2)n1 (relative stereo) [Example 2, (4S*,5S*)-3-(2′-amino-2-morpholino-4′-(trifluoromethyl)-[4,5′-bipyrimidin]-6-yl)-4-ethyl-5-(4-methoxyphenyl)oxazolidin-2-one] | – | – | 751 nM | – |
| C[C@H]1[C@H](c2ccccc2)OC(=O)N1c1cc(-c2cnc(N)nc2C(F)(F)F)nc(N2CCOCC2)n1 [Example 5] | – | 119 nM | – | – |
